# Experimental data from paper PMC7083851, “Extended pharmacodynamic responses observed upon PROTAC-mediated degradation of RIPK2” (Communications Biology, 2020).
# Several values for one entry are separate records, joined by “and”; a condition that tells them apart may be missing. Identical values can stand only once.
# Columns and labels:
# Microsomal CLint, human = assay type: in vitro ADME; conditions: human microsomes
# Description: (§1) Metabolic stability was performed at Cyprotex (UK). Pooled liver microsomes / cryopreserved pooled hepatocytes were purchased from a commercial supplier (BD Biosciences or Corning/InVitro Technologies).
# (§2) The final incubation volume was 500 μL. A minus cofactor control incubation was included for each compound tested where 0.05 M phosphate buffer pH 7.4 was added instead of NADPH (minus NADPH). Each compound was incubated for 0, 5, 15, 30, and 45 min. The control (minus NADPH) was incubated for 45 min only.
# (§3) All incubations were terminated by transferring 50 μL of incubate to 100 μL of acetonitrile containing internal standard at the appropriate time points. The termination plates were centrifuged at 2500 rpm for 20–30min at 4 °C to precipitate the protein. Following protein precipitation, samples were analysed using quantitative LC-MS/MS. A plot of ln peak area ratio (compound peak area/internal standard peak area) against time, yielded the gradient of the line.
# (§4) Calculated intrinsic clearance values of control compounds were compared with the Cyprotex data library to confirm the appropriate activity of the microsomal/hepatocyte batch and data acceptance.
# [1] = High-throughput precipitation solubility, chemiluminescent nitrogen-specific detection (CLND); assay type: physicochemical; conditions: high-throughput precipitation assay
# [2] = ChromLogD7.4 high-throughput chromatographic lipophilicity; assay type: physicochemical
# RIPK2 [3] = biological target: T1, RIPK2 (Homo sapiens, UniProt O43353); test: RIPK2 degradation in THP-1 cells, capillary-based immunoassay, 18 h; assay type: cell-based; design: endogenous in cells; host or cells: THP-1 (ATCC TIB-202); conditions: for RIPK2 level relative to DMSO control, mean / RIPK2 level relative to DMSO control, replicate: THP-1, 18 h
# T1 sequence (O43353 whole entry): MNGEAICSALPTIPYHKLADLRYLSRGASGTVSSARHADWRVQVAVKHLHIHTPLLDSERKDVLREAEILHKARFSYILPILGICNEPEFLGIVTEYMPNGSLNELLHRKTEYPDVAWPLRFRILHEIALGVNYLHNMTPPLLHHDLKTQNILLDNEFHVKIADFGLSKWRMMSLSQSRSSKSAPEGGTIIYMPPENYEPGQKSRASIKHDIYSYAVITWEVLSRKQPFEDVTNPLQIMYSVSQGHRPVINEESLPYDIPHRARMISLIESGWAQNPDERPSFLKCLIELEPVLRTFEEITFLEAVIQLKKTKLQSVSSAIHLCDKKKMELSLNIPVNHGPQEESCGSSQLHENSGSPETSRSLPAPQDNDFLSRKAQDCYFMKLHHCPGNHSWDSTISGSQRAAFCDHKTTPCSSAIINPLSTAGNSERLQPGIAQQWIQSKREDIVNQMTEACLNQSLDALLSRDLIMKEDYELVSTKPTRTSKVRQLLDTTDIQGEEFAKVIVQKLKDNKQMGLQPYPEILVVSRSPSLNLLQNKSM
# Description: The compounds were incubated with THP-1 cells for 18 h after which RIPK2 levels were determined using a capillary-based immunoassay (n = 3). All three PROTACs potently degraded RIPK2 in a concentration dependent manner (Fig. 1). […]. This discrepancy between the in vitro RIPK2 degradation and binding potency provides possible evidence for a catalytic mechanism of action of this compound.
# (§5) Before treatment with compound or vehicle, THP1 cells, human and rat PBMCs were counted using Vi-Cell cell counter (Invitrogen) and adjusted to a final cell density of […] using complete growth medium. Cells or whole blood were treated with vehicle (0.1% DMSO) or fixed concentrations of compound up to 1 μM in half log unit increments and incubated for the time period indicated in the figure.
# Simple Western immunoassay: Cell lysates were mixed with 5× concentrated master mix (Protein Simple) and denatured at 95 °C on a heat block for 5 min together with the provided ladder (Protein Simple). Antibodies were diluted in the provided buffer as following: anti-RIPK2 (1:10 or 1:50), anti-cIAP1(1:10), anti-cIAP2 (1:10), anti-XIAP (1:10), mouse anti-β-actin (Abcam - 1:1000), rabbit anti-β-actin (Abcam - 1:50) and anti-vinculin (1:100). All reagents (blocking buffer, primary and secondary antibodies, streptavadin, luminol/peroxide, separation matrix, stacking matrix and water) were added to the Protein Simple plate containing the ladder and lysates and the plate was placed in a Protein Simple Western instrument and the Simple Western default size assay protocol was used. All samples were analyzed using the associated Compass software 3.1.7. The area under the peak values obtained for RIPK2, cIAP1, cIAP2 or XIAP were normalized relative to the control protein values.
# In vitro experimental data were analyzed using a 4-parameter logistic equation in GraphPad Prism 5.0.4. to generate an estimate of the half-maximal concentration and maximal degradation, DC50 and Dmax value respectively, for concentration-degradation relationships. Cytokine levels were analyzed in a similar manner to yield IC50 and Imax values. […] Where analysis to a sigmoidal relationship was not possible, the data points are shown as mean ± s.e.m.
# Microsomal CLint, rat = assay type: in vitro ADME; conditions: rat microsomes
# Description: as §1, §2, §3, §4
# MDP-induced TNFα release = MDP-induced TNFα release in human whole blood; assay type: cell-based; conditions: inhibition of MDP-induced TNFα release
# Description: as §5
# Where the assessment of cytokines was performed, L18-MDP was added to the cell culture media (1 μg/ml) or to the rat blood samples (100 ng/ml) and samples were incubated for up to 4 h. […]
# Cytokine measurement assay: Cytokine levels were measured in rat plasma or rat PBMCs cell culture supernatants using rat V-Plex TNFα, in human plasma or human PBMCs cell culture supernatants with either TNFα tissue culture or 7-plex kit. Rat serum and tissues samples from the in vivo L18-MDP acute inflammation model were analyzed using the rat TNFα, Il-6 and IL-8 U-Plex kits. […] Levels of cytokines spontaneously released from human colon biopsies cell culture supernatants were measured using Human IL-1 beta/IL-1F2 DuoSet ELISA (Bio-techne), Human IL-6 ELISA (Immunotools) and Human TNF-alpha DuoSet ELISA (Bio-techne). […] The MSD plates were analyzed using the MSD sector imager 6000 plate reader and cytokines concentration (pg/ml) was obtained by using the MSD DISCOVERY WORKBENCH software version 4.0.12.1 […]
# RIPK2 [4] = biological target: T1, RIPK2; test: RIPK2 fluorescence polarisation binding assay
smiles,measurement,setting,value
CN[C@@H](C)C(=O)N[C@H](C(=O)N1Cc2cc(OCCOCCOCCOCCOc3cc4nccc(Nc5ccc6scnc6c5)c4cc3S(=O)(=O)C(C)(C)C)ccc2C[C@H]1C(=O)N[C@@H]1CCCc2ccccc21)C(C)(C)C [PROTAC 2],microsomal turnover,"Microsomal CLint, human",29 mL/min/g liver
same,"CLND solubility, in words",[1],poor solubility
same,ChromLogD7.4,[2],6.1
same,"RIPK2 level relative to DMSO control, mean",RIPK2 [3]; concentration 5.64503e-11 (uM),117.46%
same,"RIPK2 level relative to DMSO control, replicate",RIPK2 [3]; concentration 5.64503e-11 (uM),117.27% and 131.32% and 103.77%
same,"RIPK2 level relative to DMSO control, mean",RIPK2 [3]; concentration 1.69351e-10 (uM),97.22%
same,"RIPK2 level relative to DMSO control, replicate",RIPK2 [3]; concentration 1.69351e-10 (uM),71.86% and 108.98% and 110.82%
same,"RIPK2 level relative to DMSO control, mean",RIPK2 [3]; concentration 5.08053e-10 (uM),57.20%
same,"RIPK2 level relative to DMSO control, replicate",RIPK2 [3]; concentration 5.08053e-10 (uM),41.71% and 72.70% and 57.18%
same,"RIPK2 level relative to DMSO control, mean",RIPK2 [3]; concentration 1.52416e-9 (uM),26.83%
same,"RIPK2 level relative to DMSO control, replicate",RIPK2 [3]; concentration 1.52416e-9 (uM),18.29% and 36.88% and 25.33%
same,"RIPK2 level relative to DMSO control, mean",RIPK2 [3]; concentration 4.57247e-9 (uM),15.28%
same,"RIPK2 level relative to DMSO control, replicate",RIPK2 [3]; concentration 4.57247e-9 (uM),12.82% and 16.44% and 16.58%
same,"RIPK2 level relative to DMSO control, mean",RIPK2 [3]; concentration 1.37174e-8 (uM),8.47%
same,"RIPK2 level relative to DMSO control, replicate",RIPK2 [3]; concentration 1.37174e-8 (uM),4.51% and 15.08% and 5.82%
same,"RIPK2 level relative to DMSO control, mean",RIPK2 [3]; concentration 4.11523e-8 (uM),4.73%
same,"RIPK2 level relative to DMSO control, replicate",RIPK2 [3]; concentration 4.11523e-8 (uM),6.91% and 6.83% and 0.44%
same,"RIPK2 level relative to DMSO control, mean",RIPK2 [3]; concentration 1.23457e-7 (uM),7.39%
same,"RIPK2 level relative to DMSO control, replicate",RIPK2 [3]; concentration 1.23457e-7 (uM),4.63% and 11.01% and 6.53%
same,"RIPK2 level relative to DMSO control, mean",RIPK2 [3]; concentration 3.7037e-7 (uM),9.35%
same,"RIPK2 level relative to DMSO control, replicate",RIPK2 [3]; concentration 3.7037e-7 (uM),5.28% and 16.09% and 6.68%
same,"RIPK2 level relative to DMSO control, mean",RIPK2 [3]; concentration 1.11111e-6 (uM),11.12%
same,"RIPK2 level relative to DMSO control, replicate",RIPK2 [3]; concentration 1.11111e-6 (uM),12.33% and 13.80% and 7.23%
same,"RIPK2 level relative to DMSO control, mean",RIPK2 [3]; concentration 3.33333e-6 (uM),14.86%
same,"RIPK2 level relative to DMSO control, replicate",RIPK2 [3]; concentration 3.33333e-6 (uM),10.80% and 18.84% and 14.95%
same,"RIPK2 level relative to DMSO control, mean",RIPK2 [3]; concentration 1e-5 (uM),10.81%
same,"RIPK2 level relative to DMSO control, replicate",RIPK2 [3]; concentration 1e-5 (uM),10.44% and 15.52% and 6.46%
same,pDC50 (log half-maximal degradation concentration) of RIPK2,"RIPK2 [3]; THP-1 cells, 18 h, n = 3",9.4 ± 0.1
same,microsomal turnover,"Microsomal CLint, rat",11 mL/min/g liver
same,hWB MDP pIC50 ± SEM (n),MDP-induced TNFα release,7.95 ± 0
same,IC50,RIPK2 [4],10 nM
